The test relates to Plasmodium falciparum. The test is described as follows: microbe, parasite or virus in culture. The settings on record: NF54.

What is called IC50 is the concentration needed to halve the response being measured. Low readings indicate greater potency in that assay, high ones weaker potency in that assay.

Description: Antimicrobial activity against Plasmodium falciparum NF54

In the case of `CCCCOC1(C)CC(C)(C)OO1` (stereo unspecified), the IC50 was over 10000 nM.

Compound `CC1(C)CC(C)(OCC23CC4CC(CC(C4)C2)C3)OO1` (stereo unspecified) registered an IC50 of 290 nM. This counts as sub-micromolar.

In turn, `CC1(OCCc2ccccc2)CC2(CCCCC2)OO1` (stereo unspecified) yielded an IC50 of 9 nM.

In turn, `CC1(OCC23CC4CC(CC(C4)C2)C3)CC2(CCCCC2)OO1` (stereo unspecified) showed an IC50 of 35 nM. Against the preceding compound, the IC50 is about 3.9-fold higher.

`COC1(Cc2ccccc2)CC2(CCCCC2)OO1` (stereo unspecified) came in with an IC50 of 340 nM.

The compound `COC1(Cc2ccccc2)CC(C)(C)OO1` (stereo unspecified) yielded an IC50 of 970 nM.

For the compound `COC1(C2CCCCC2)CC2(CCCCC2)OO1` (stereo unspecified), the IC50 turned out to be 9.2 nM.

Turning to `CCCCC1(C)CC(C)(OCCC)OO1` (mixture of isomers), the IC50 was over 4000 nM.

`CCCCC1(C)CC(C)(OCC23CC4CC(CC(C4)C2)C3)OO1` (mixture of isomers): the midpoint of inhibition, the IC50, lay at 140 nM.

On to `CCCCC1(C)CC(C)(OCCc2ccccc2)OO1` (mixture of isomers), for which the IC50 is 76 nM.

As to `C[C@H]1[C@H](OC(=O)CCC(=O)O)O[C@@H]2O[C@@]3(C)CC[C@H]4[C@H](C)CC[C@@H]1[C@@]24OO3` [ARTESUNATE], half-maximal inhibition (IC50) required 2.5 nM.
